Assay results: patent US12637498B2, “PDLIM2 as a biomarker for cancer and as an anti-cancer treatment target” (UNIVERSITY OF PITTSBURGH—OF THE COMMONWEALTH SYSTEM OF …, priority 2019, dated 2026)
Entries after “also recorded” stand apart in the source; their conditions may differ.

Assays:
[1] = system: PDLIM2; assay: qPCR analysis of PDLIM2 expression in human lung cancer cell lines; assay type: cell-based
[2] = system: PDLIM2; assay: qPCR analysis of PDLIM2 in mouse MAD109 lung cancer cells; assay type: cell-based
[3] = system: PDLIM2; assay: IHC staining of PDLIM2 in mouse lung tumors and tissues (urethane model); assay type: in vivo
Procedure: (§1) Urethane model: 6-8-week-old mice under FVB/N background were intraperitoneally (i.p.) injected with urethane (1 g/kg body weight, Sigma-Aldrich, St. Louis, MO, USA) once a week for six weeks. All mice were sacrificed for lung tumor examinations seven (for no drug treatment experiments) or six (for drug treatment experiments) weeks post urethane treatment. For drug treatment experiments, the epigenetic agents 5-aza-dC (1 mg/kg body weight, Sigma-Aldrich, St. Louis, MO, USA) and MS-275 (1 mg/kg body weight, Selleckchem, Houston, TX, USA), chemotherapeutic drugs carboplatin (30 mg/kg body weight, AdipoGen, San Diego, CA, USA) and paclitaxel (15 mg/kg body weight, AdipoGen, San Diego, CA, USA), and/or PD-1 neutralizing antibody (200 μg/mouse, BioXCell, West Lebanon, NH, USA) were i.p injected as indicated in FIG. 4. Surface tumors in mouse lungs were counted by three blinded readers under a dissecting microscope, and tumor diameters were measured by microcalipers. K-Ras^G12D model: 6-8-week-old mice under FVB/N background were intranasally administered 1×10^7 plaque-forming units of Cre-expressing adenovirus (adenocre; Gene Transfer Vector Core, University of Iowa, Iowa City, IA). Three months post AdenoCre treatment, all mice were sacrificed for lung tumor examinations.
Mouse or tissues were excised, fixed in formalin, embedded in paraffin, and cut into 4-pm-thick sections. […]

[4] = system: lung cancer induced by urethane; assay: Urethane model of lung cancer, tumor examination; assay type: in vivo, mouse; conditions: ΔSPC mice (lung epithelial PDLIM2 deletion), 5-aza-dC and MS275 combination therapy (Epi)
Procedure: as §1
PDLIM2flx/flx/SP-C-rtTAtg/−/(tetO)7CMV-Cretg/tg (ΔSPC) mice under a pure FVB/N background and PDLIM2−/− mice under a pure BABL/C background have been described before (Sun et al., Nat. Commun. 2019. 10, 5324). For lung carcinogenesis, six to eight week old ΔSPC and wild type FVB/N mice were intraperitoneally (i.p.) injected with urethane (1 mg/g body weight, Sigma-Aldrich, St. Louis, MO, USA) once a week for six consecutive weeks, followed by different treatment as shown in FIGS. 45A and 49A. Mice were sacrificed for lung inflammation and tumor examinations at six weeks post urethane treatment. Surface tumors in mouse lungs were counted blinded under a dissecting microscope, and tumor diameters were measured by microcalipers. […]

[5] = system: human lung cancer cells; assay: Cell growth assays; assay type: cell-based; conditions: human lung cancer cells with PDLIM2 knockdown (shRNA), in vitro
Procedure: Cells were seeded into 12-well plates at a density of 5,000 cells per well, in the presence or absence of the indicated treatment. Cell density was determined by replacing the medium with 2 μmol/L of calcein AM in 1× dissociation solution (Trevigen) at the indicated time points. After 1 h of incubation, diesterase activity (relative fluorescence units) was measured with a Tecan Infinite 200 Microplate Reader, using an excitation wavelength of 485 nm and emission wavelength of 520 nm.

[6] = system: PD-L1; assay: qPCR of PD-L1 in lung cancer cells; assay type: cell-based, human; conditions: lung cancer cells
Source text: Mouse lung tissues and BAL cells were subjected to RNA extraction, RNA reverse transcription and real-time PCR as described (Li et al., Oncoimmunology 7, e1435250 (2018); Sun et al., Bio. Protoc. 7, pii: e2287 (2017)).

[7] = system: PD-L1; assay: IHC staining of PD-L1 in lung cancer (urethane model); assay type: in vivo, mouse; conditions: 5-aza-dC and MS-275 together
Procedure: as §1
Mouse or tissues were excised, fixed in formalin, embedded in paraffin, and cut into […] sections. Sections were stained with H&E, or subjected to sequential incubations with different primary antibodies and peroxidase-conjugated goat anti-rabbit secondary antibodies. The human lung tumor tissue arrays were described previously (Sun et al., Oncogene 35, 2299-2310 (2016)).
Lung tissues were excised, fixed in formalin, embedded in paraffin, and cut into 4-μm-thick sections. Sections were stained with H&E, or subjected to sequential incubations with the indicated primary antibodies, biotinylated secondary antibodies and streptavidin-HRP.

[8] = Toxicity: animal body weight and H&E staining of major organs; assay type: in vivo, mouse; conditions: mice with lung cancer; 1 mg/kg of 5-aza-dC and MS-275 twice per week for 6 weeks
[9] = system: PDLIM2; assay: qPCR of PDLIM2 in RAW264.7 macrophages; assay type: cell-based, mouse; conditions: RAW264.7 macrophages in LLC lung tumor cell co-culture
Source text: The indicated tissues or cells were subjected to RNA extraction, RNA reverse transcription and real-time PCR using trizol, reverse transcriptase, and Power SYBR Green PCR Master Mix (Thermo Fisher Scientific, Waltham, MA USA).

[10] = system: BACH1; assay: IF analysis of BACH1 nuclear translocation in AMs of mice with lung tumors; parameters: species or system mouse; conditions: mice with lung tumors (urethane); in vivo treatment, 5 mg/ml in drinking water
Procedure: (§2) The animal experiments were performed in accordance with the US National Institutes of Health (NIH) Guidelines on the Use of Laboratory Animals. All animals were maintained under pathogen-free conditions. […], […] and Lysozyme M-Cre mice have been described before (Sun et al., Nat Commun 2019; 10:5324; Zhou et al., Oncogene 2015; 34:3804-3814; Zhou et al., Cancer Immunol Res 2017; 5:257-268; Li et al., Oncoimmunology 2018; 7:e1435250). Luciferase-expressing mice, PD-1 deficient mice and CD80/CD86 deficient mice were purchased from The Jackson Laboratory. Except for the PD-1 deficient mice and CD80/CD86 deficient mice, which are under […] background, all other mice were backcrossed to FVB/N mice (The Jackson Laboratory) for more than ten generations, and then used to generate the experimental mice. […] Louis, MO, USA) once a week for six consecutive weeks (8-10). […] Surface tumors in mouse lungs were counted by three blinded readers under a dissecting microscope, and tumor diameters were measured by microcalipers. […] Stained proteins and their subcellular localizations were detected using a fluorescence microscope.

[11] = system: PDLIM2; assay: qPCR and IF of PDLIM2 in AMs of mice with lung tumors; parameters: species or system mouse; conditions: mice with lung tumors (urethane); in vivo treatment
Procedure: as §2, with “microscope. […]” for “microscope.”

Row | Compound | PDLIM2 expression (qPCR) ([1]; H460 human lung cancer cells) | PDLIM2 expression (qPCR) ([1]; human lung cancer cell lines) | PDLIM2 expression (qPCR) ([1]; human lung cancer cell lines, listed as MS275) | PDLIM2 expression (qPCR) ([1]; normal human lung epithelial cell line NL-20 with oncogenic K-Ras Q61H mutant) | PDLIM2 expression (qPCR) [2] | PDLIM2 expression in murine lung cancers ([3]; both in vitro and in vivo) | PDLIM2 expression in mouse lung tumor (IHC staining) ([3]; urethane model, 5-aza-dC and MS-275 (epigenetic drugs) given together) | lung cancer treatment (tumor examination) [4] | cell growth [5] | PD-L1 expression (qPCR) [6] | PD-L1 expression in lung cancer (IHC staining) [7] | animal body weight [8] | PDLIM2 expression (qPCR) [9] | BACH1 nuclear translocation in AMs (IF) [10] | PDLIM2 in AMs (IF) [11] | PDLIM2 in AMs (qPCR) [11]
1 | Nc1ccccc1NC(=O)c1ccc(CNC(=O)OCc2cccnc2)cc1 [MS-275, entinostat] | PDLIM2 recovery; also recorded: time-dependent induction of PDLIM2 | induction of PDLIM2 | induced PDLIM2 re-expression | PDLIM2 re-induction | PDLIM2 re-induction | could be restored | PDLIM2 recovery | completely lost the ability to treat lung cancer; also recorded: complete resistance | protected human lung cancer cells; also recorded: protection of human lung cancer cells | PD-L1 induction | PD-L1 induction | body weight loss | – | – | – | –
2 | CC(=O)N[C@@H](CS)C(=O)O [NAC, N-Acetyl-L-cysteine] | – | – | – | – | – | – | – | – | – | – | – | – | could block the PDLIM2 suppression; also recorded: recovery | could efficiently be blocked; also recorded: inhibition of BACH1 nuclear translocation | PDLIM2 induction | could efficiently be blocked; also recorded: increased PDLIM2
